Results taken from patent US11220503B2, “Phthalazine derivatives, preparation method, pharmaceutical composition and usage thereof” (Shanghai SIMR Biotech Co., Ltd., priority 2015, dated 2022).

Tests used:
α5β3γ2 receptor [1] = target: T1, α5β3γ2 receptor (Homo sapiens, UniProt P18507+P31644); experiment: Supplementary data for cell level screening: new electrophysiology method (I. Lecker et al); type: cell-based; conditions: for Inverse agonism efficacy(%): new method, CsCl intracellular solution, GABA 0.1˜0.3 CM, other procedures as previous method; for inverse agonism efficacy of the compound/α5IA inverse agonism efficacy: ratio to the α5IA reference run above in the table (r4 or r29)
T1 construct: expressed in transfected cells; host or cells: HEK-293 (stably transfected)
Protocol: The inventors used electrophysiological methods to assay the inverse agonist efficacy of the substance to be tested. The detailed procedures are as follows: (1) Different subunits of GABAA receptors were expressed in human embryonic kidney cells 293 (HEK293). The cells were cultured in a culture medium and used as a cell model for screening potential analgesics. The α, β and γ subunits are necessary to form complete functional GABAA receptors. In this example, the inventor has established the following cell model: (a) α5 subunit (protein sequence is GenBank accession number: NP_001158509), β3 subunit (protein sequence is GenBank accession number: NP_068712) and γ2 subunit (protein sequence is GenBank accession number: NP_944494) were expressed in HEK-293 cell lines at the same time, which formed the complete functional GABAA receptors. (2) Cells were stably transfected HEK-293 cells expressing α5β3γ2 receptor, which were labeled by green fluorescent protein (GFP). Cells were grown in 10 cm dishes. The cells were passaged after reaching 80-90% confluence. During passaging, the culture medium was removed and discarded, 3 mL DMEM medium (Gibco™) was added to the dishes, the dishes were shaken slightly, and DMEM was removed and discarded. 3 mL Trypsin (Trypsin-EDTA 0.05%, Gibco™) was added and cells were digested at 37° C. for 3 minutes. Then 3 mL complete growth medium (DMEM+10% horse serum (Gibco™)) was added and the cells at the bottom of the culture dishes were dispersed. The cell suspension were transferred to a 15 mL centrifugal tube (Corning®) and then centrifuged at 200 g for 3 minutes. The supernatant was discarded, 4 mL complete growth medium was added, and the cells were resuspended by gently blowing. The cell suspension was diluted by 1:5 or 1:10 for subculturing. The cell suspension was diluted by 1:12 for electrophysiology experiment, which are added to the 24 well plate (Corning®) which has a glass slide pre-treated with poly-D-lysine. The cells were adhered to the slide before the experiment was conducted. The cells were maintained in culture for no more than 24 hours before use. (3) Compound concentration: for screening, all compounds were diluted to a final concentration of 100 nM. […] The compounds were at the concentration of 1 nM, 10 nM, 50 nM, 100 nM and 1000 nM in dose-inverse agonism efficacy (%) experiment. The whole cell patch clamp technique was used in electrophysiology experiments. The extracellular solution (ECS) contained: 150 mM NaCl, 5 mM KCl, 2.5 mM CaCl2, 1 mM MgCl2, 10 mM HEPES and 10 mM glucose (pH 7.4); […], 5 mM EGTA, 10 mM HEPES ([…] water). The currents were recorded by an EPC-10 amplifier and the PatchMaster software (HEKA). Patch electrodes with a resistance of 5-6 MΩ were pulled from borosilicate glass (Sutter). The diluted compounds were perfused by OCTAFLOWII system. GFP positive and independently growing cells were selected for recording. During recording, the membrane voltage was clamped at −60 mV. During experiment, the cells were firstly perfused with ECS for 20 seconds. When the baseline reached to a stable state, cells were then perfused with GABA solution. Then the current induced by GABA can be detected. After about 20-40 seconds, the current was stable. ECS was switched to compounds solution and the effects of the compounds were detected. At last, the perfusion solution was switched to ECS. The experiment was finished when the post-baseline returned to the pre-baseline before compounds perfusion. Only the data whose pre-baseline and post-baseline are at almost the same level were used for analysis. […] Then, compounds were diluted at the desired concentration in GABA ECS. (4) Currents were analyzed with the PatchMaster (HEKA) software. The GABA currents before (Ipre) and after (Ipost) compounds perfusion were recorded respectively. The efficacies of compounds were calculated by the following equation: inverse agonism efficacy=(Ipost-Ipre)*100/Ipre. N indicates experiment numbers. […]

[2] = Compound tissue distribution (brain/plasma); type: in vivo; conditions: brain and plasma, po; rat, 1 mg/kg p.o. in 5% DMSO+70% PEG400+25% H2O, one hour; read-out: Brain/Plasma ratio
Protocol: The distribution ratio of blood brain tissue was calculated by comparing the concentration of compound in rat plasma and brain tissue. The experimental animals were divided into two groups, the plasma group and the brain group, each with three. To measure brain to plasma ratio, rats were administed compounds in 50% PEG400 p.o. at a dose of 10 mg compound to be tested/kg. One hour later, plasma and brain samples were taken. Concentrations of compounds in brain and plasma were detected using LC-MS/MS-AJ (Triple Quad 5500) assay and analyzed using Phoenix WinNonlin.
We also measured the brain to plasma ratio of compound #24. The experimental animals were divided into two groups, the plasma group and the brain group, each with three. To measure the brain to plasma ratio, Rats were administered compounds (1 mg/kg in 5% DMSO+70% PEG400+25% H2O p.o.). One hour later, plasma and brain samples were taken. Concentrations of compounds in brain and plasma were detected using a LC-MS/MS-AJ (Triple Quad 5500) assay and analyzed using Phoenix WinNonlin.

α5β3γ2 receptor [3] = target: T1, α5β3γ2 receptor; experiment: Cell level screening: whole cell patch clamp, inverse agonist efficacy; type: cell-based; conditions: for inhibition at 0.1 µM: HEK293, compound 100 nM, GABA 0.05-0.1 μM, HEK293 α5β3γ2, clamped at −60 mV, (Ipost-Ipre)*100/Ipre, read-out: inverse agonism efficacy(%); for inverse agonism efficacy of the compound/α5IA inverse agonism efficacy: ratio to α5IA, compound 100 nM
Protocol: The inventors used electrophysiological methods to assay the inverse agonist efficacy of the substance to be tested. The detailed procedures are as follows: (1) Different subunits of GABAA receptors were expressed in human embryonic kidney cells 293 (HEK293). The cells were cultured in a culture medium and used as a cell model for screening potential analgesics. The α, β and γ subunits are necessary to form complete functional GABAA receptors. In this example, the inventor has established the following cell model: (a) α5 subunit (protein sequence is GenBank accession number: NP_001158509), β3 subunit (protein sequence is GenBank accession number: NP_068712) and γ2 subunit (protein sequence is GenBank accession number: NP_944494) were expressed in HEK-293 cell lines at the same time, which formed the complete functional GABAA receptors. (2) Cells were stably transfected HEK-293 cells expressing α5β3γ2 receptor, which were labeled by green fluorescent protein (GFP). Cells were grown in 10 cm dishes. The cells were passaged after reaching 80-90% confluence. During passaging, the culture medium was removed and discarded, 3 mL DMEM medium (Gibco™) was added to the dishes, the dishes were shaken slightly, and DMEM was removed and discarded. 3 mL Trypsin (Trypsin-EDTA 0.05%, Gibco™) was added and cells were digested at 37° C. for 3 minutes. Then 3 mL complete growth medium (DMEM+10% horse serum (Gibco™)) was added and the cells at the bottom of the culture dishes were dispersed. The cell suspension were transferred to a 15 mL centrifugal tube (Corning®) and then centrifuged at 200 g for 3 minutes. The supernatant was discarded, 4 mL complete growth medium was added, and the cells were resuspended by gently blowing. The cell suspension was diluted by 1:5 or 1:10 for subculturing. The cell suspension was diluted by 1:12 for electrophysiology experiment, which are added to the 24 well plate (Corning®) which has a glass slide pre-treated with poly-D-lysine. The cells were adhered to the slide before the experiment was conducted. The cells were maintained in culture for no more than 24 hours before use. (3) Compound concentration: for screening, all compounds were diluted to a final concentration of 100 nM. GABA was diluted at the concentration of 0.05-0.1 μM. The compounds were at the concentration of 1 nM, 10 nM, 50 nM, 100 nM and 1000 nM in dose-inverse agonism efficacy (%) experiment. The whole cell patch clamp technique was used in electrophysiology experiments. The extracellular solution (ECS) contained: 150 mM NaCl, 5 mM KCl, 2.5 mM CaCl2, 1 mM MgCl2, 10 mM HEPES and 10 mM glucose (pH 7.4); Patch electrodes were filled with an intracellular solution containing: 140 mM KCl, 5 mM EGTA, 10 mM HEPES (adjusted to pH 7.4 with KOH and to 320-330 mOsm with water). The currents were recorded by an EPC-10 amplifier and the PatchMaster software (HEKA). Patch electrodes with a resistance of 5-6 MΩ were pulled from borosilicate glass (Sutter). The diluted compounds were perfused by OCTAFLOWII system. GFP positive and independently growing cells were selected for recording. During recording, the membrane voltage was clamped at −60 mV. During experiment, the cells were firstly perfused with ECS for 20 seconds. When the baseline reached to a stable state, cells were then perfused with GABA solution. Then the current induced by GABA can be detected. After about 20-40 seconds, the current was stable. ECS was switched to compounds solution and the effects of the compounds were detected. At last, the perfusion solution was switched to ECS. The experiment was finished when the post-baseline returned to the pre-baseline before compounds perfusion. Only the data whose pre-baseline and post-baseline are at almost the same level were used for analysis. GABA was diluted at the concentration of 0.05-0.1 μM in ECS. Then, compounds were diluted at the desired concentration in GABA ECS. (4) Currents were analyzed with the PatchMaster (HEKA) software. […]

α5-GABAA = target: T2, α5-GABAA (Homo sapiens, UniProt P31644); conditions: cited from earlier work
T2 sequence (P31644 32-462): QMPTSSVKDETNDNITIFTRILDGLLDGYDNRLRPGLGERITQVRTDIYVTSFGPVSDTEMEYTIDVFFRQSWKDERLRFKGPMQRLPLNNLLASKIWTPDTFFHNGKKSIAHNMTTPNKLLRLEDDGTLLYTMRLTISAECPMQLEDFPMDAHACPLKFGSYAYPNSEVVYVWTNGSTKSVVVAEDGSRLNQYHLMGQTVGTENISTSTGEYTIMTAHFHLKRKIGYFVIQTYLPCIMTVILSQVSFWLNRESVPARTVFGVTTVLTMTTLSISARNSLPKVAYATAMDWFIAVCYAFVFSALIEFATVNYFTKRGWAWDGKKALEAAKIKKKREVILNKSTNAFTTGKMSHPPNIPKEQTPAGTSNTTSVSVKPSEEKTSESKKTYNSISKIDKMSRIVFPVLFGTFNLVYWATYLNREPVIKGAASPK

α5-GABAA receptor = conditions: cited from earlier work

T1 sequence (P28472 26-473 isoform P28472-2 partner limits assumed, one chain of several): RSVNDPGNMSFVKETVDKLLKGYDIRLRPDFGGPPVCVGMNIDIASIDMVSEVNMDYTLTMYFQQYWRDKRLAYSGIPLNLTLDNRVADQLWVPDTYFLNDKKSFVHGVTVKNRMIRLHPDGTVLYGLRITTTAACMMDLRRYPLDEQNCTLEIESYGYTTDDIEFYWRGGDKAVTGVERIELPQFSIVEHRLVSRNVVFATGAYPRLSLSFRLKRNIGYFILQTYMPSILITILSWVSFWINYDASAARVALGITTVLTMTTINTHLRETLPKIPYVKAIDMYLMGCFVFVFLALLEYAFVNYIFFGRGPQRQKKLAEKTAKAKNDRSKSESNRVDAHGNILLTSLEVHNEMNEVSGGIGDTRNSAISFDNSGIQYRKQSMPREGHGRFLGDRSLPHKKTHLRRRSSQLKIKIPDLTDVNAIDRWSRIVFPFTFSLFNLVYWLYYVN
T1 sequence (P18507 40-475, one chain of several): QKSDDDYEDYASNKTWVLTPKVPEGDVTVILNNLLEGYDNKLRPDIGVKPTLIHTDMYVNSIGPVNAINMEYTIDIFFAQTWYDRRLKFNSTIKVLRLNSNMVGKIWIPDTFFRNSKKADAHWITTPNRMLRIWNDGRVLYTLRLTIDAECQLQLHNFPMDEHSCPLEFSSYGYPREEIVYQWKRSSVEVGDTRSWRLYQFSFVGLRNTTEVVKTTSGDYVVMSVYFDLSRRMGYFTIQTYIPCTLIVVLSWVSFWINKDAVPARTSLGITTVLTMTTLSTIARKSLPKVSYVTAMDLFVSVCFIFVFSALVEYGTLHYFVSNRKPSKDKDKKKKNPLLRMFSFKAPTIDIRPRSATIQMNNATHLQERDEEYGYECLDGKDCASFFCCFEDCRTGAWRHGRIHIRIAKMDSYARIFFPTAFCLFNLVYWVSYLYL

| Compound | Inverse agonism efficacy(%) (α5β3γ2 receptor [1]) | inverse agonism efficacy of the compound/α5IA inverse agonism efficacy (α5β3γ2 receptor [1]) | inhibition at 0.1 µM (α5β3γ2 receptor [3]) [%] | inverse agonism efficacy of the compound/α5IA inverse agonism efficacy (α5β3γ2 receptor [3]) | further results |
| --- | --- | --- | --- | --- | --- |
| Cc1cc(-c2nnc3c4ccccc4c(OCc4ccc(C(=O)NCC5CC5)cn4)nn23)no1 [Compound 24, N-(cyclopropylmethyl)-6-(((3-(5-methylisoxazol-3-yl)-[1,2,4]triazolo[3,4-a]phthalazin-6-yl)oxy)methyl)nicotinamide] | −34.5 | 1.855 | – | – | Kp at 1 h [2]: 0.044 |
| C[C@H](CO)NC(=O)c1ccc(COc2nn3c(-c4cc(CO)on4)nnc3c3ccccc23)c(C#N)c1 [Compound 55, (R)-3-cyano-4-(((3-(5-(hydroxymethyl)isoxazol-3-yl)-[1,2,4]triazolo[3,4-a]phthalazin-6-yl)oxy)methyl)-N-(1-hydroxypropan-2-yl)benzamide] | −31.6 | 1.819 | 33.3 | 1.4765 | – |
| Cc1nc(-c2nnc3c4ccccc4c(OCc4ccc(C(=O)N[C@H](C)CO)cn4)nn23)no1 [Compound 57, (R)—N-(1-hydroxypropan-2-yl)-6-(((3-(5-methyl-1,2,4-oxadiazol-3-yl)-[1,2,4]triazolo[3,4-a]phthalazin-6-yl)oxy)methyl)nicotinamide] | −25 | 1.439 | 38.3 | 1.6973 | – |
| Cc1cc(-c2nnc3c4ccccc4c(OCc4cc(C(=O)N[C@H](C)CO)on4)nn23)no1 [Compound 58, (R)—N-(1-hydroxypropan-2-yl)-3-(((3-(5-methylisoxazol-3-yl)-[1,2,4]triazolo[3,4-a]phthalazin-6-yl)oxy)methyl)isoxazole-5-carboxamide] | −27 | 1.554 | 30 | 1.33 | – |
| CCOC(=O)c1ncn2c1[C@@H]1CCCN1C(=O)c1cc(OC)ccc1-2 [L-655,708] | – | – | – | – | inhibition efficacy (α5-GABAA; GABA 1 μM, highest dose of L-655,708): ~15%; inhibition of the current induced by low level GABA (α5-GABAA; GABA 5, 50 and 500 nM): in the concentration dependent manner; inhibition on the current induced by GABA (α5-GABAA; GABA concentration higher than 1 μM): no inhibition |
| Cc1cc(-c2nncc3c(C(C)(C)C)c(OCc4ncnn4C)nn23)no1 [MRK016, 3-tert-butyl-7-(5-methylisoxazol-3-yl)-2-(1-methyl-1H-1,2,4-triazol-5-ylmethoxy) pyrazolo[1,5-d][1,2,4]triazine] | – | – | – | – | blocking of the binding of (^3H) R0-15-1788 in brain (α5-GABAA receptor): could efficiently block the binding |
| Cn1ncnc1COc1nn2c(-c3cc(CO)on3)nncc2c1C(C)(C)C [MRK016-M3] | – | – | – | – | blocking of the binding of (^3H) R0-15-1788 in brain (α5-GABAA receptor): almost no blocking effect |
